Results published in publication PMC5907918 (Biochemistry, 2017).

How the values were obtained:
human Sts-2HP = target: T1, human Sts-2HP (Homo sapiens, UniProt P57075); test: Steady state kinetics of phosphatase substrates, human Sts-2HP; type: biochemical; settings: substrate as labelled, 298 K
T1 sequence (P57075 393-657): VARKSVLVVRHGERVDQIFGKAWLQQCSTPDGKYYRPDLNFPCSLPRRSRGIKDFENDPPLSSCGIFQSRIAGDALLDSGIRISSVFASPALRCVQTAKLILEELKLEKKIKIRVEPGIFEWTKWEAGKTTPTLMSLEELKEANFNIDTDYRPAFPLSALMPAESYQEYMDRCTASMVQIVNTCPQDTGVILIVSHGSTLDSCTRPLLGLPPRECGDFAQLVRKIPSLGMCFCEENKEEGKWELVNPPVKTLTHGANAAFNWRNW

human Sts-1HP [1] = target: T2, human Sts-1HP (Homo sapiens, UniProt Q8TF42); test: Steady state kinetics of phosphatase substrates, human Sts-1HP; type: biochemical; settings: substrate as labelled, 298 K
T2 sequence (Q8TF42 380-647): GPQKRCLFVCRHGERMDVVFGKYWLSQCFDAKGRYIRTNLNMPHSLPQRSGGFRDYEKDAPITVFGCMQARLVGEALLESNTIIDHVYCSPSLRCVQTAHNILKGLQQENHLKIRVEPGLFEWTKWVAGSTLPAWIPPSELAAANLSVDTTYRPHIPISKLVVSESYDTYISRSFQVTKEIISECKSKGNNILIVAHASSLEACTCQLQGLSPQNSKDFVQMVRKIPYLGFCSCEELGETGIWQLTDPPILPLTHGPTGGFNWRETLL

human Sts-1HP [2] = target: T2, human Sts-1HP; test: Inhibition of Sts-1HP phosphatase activity; type: biochemical; settings: known phosphatase inhibitors tested
PTP-1B = settings: cited from earlier work
[3] = target: histidine phosphatase domain of human Sts-1 (Sts-1HP) (human) (UniProt Q8TF42); test: crystal structure
Full-length Sts-1 = Full-length Sts-1 (Homo sapiens, UniProt Q8TF42); test: Steady state kinetics of phosphatase substrates, full-length Sts-1; type: biochemical; settings: substrate as labelled, 298 K
Chain of Full-length Sts-1 (Q8TF42 whole entry): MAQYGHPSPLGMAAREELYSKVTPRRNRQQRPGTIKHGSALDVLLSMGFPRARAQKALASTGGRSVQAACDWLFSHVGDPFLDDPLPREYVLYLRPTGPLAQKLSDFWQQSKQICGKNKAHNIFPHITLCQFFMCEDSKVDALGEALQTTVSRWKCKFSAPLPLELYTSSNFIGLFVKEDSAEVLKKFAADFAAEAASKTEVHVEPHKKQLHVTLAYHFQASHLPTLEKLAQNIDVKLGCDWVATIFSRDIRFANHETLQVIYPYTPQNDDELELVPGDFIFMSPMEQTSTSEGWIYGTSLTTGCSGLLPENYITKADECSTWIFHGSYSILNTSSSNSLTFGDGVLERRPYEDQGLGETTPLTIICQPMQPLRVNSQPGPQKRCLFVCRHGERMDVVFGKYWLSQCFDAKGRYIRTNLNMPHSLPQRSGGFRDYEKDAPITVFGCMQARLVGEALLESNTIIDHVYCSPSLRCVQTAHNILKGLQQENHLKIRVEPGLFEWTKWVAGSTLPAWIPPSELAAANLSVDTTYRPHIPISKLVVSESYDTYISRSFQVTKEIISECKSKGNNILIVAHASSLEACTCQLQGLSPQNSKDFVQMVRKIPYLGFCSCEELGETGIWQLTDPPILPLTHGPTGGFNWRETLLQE

Compound	Km (human Sts-2HP)	kcat (human Sts-2HP)	Km (human Sts-1HP [1])	kcat (human Sts-1HP [1])	inhibition of Sts-1HP phosphatase activity (in words) (human Sts-1HP [2])	further results
COc1ccc2c(c1)Oc1cc(OP(=O)(O)O)ccc1C21OC(=O)c2ccccc21 (stereo not drawn) [OMFP, 3-O-Methylfluorescein phosphate]	1070 ± 240 µM	5.86 ± 0.78 s⁻¹	190 ± 30 µM	786.1 ± 52.4 s⁻¹	–	–
O=C1C(=NNc2ccc(S(=O)(=O)O)cc2)C(c2ccc([N+](=O)[O-])cc2)=NN1c1ccccc1 [PHPS1, 4-[2-[1,5-dihydro-3-(4-nitrophenyl)-5-oxo-1-phenyl-4H-pyrazol-4-ylidene]hydrazinyl]-benzenesulfonic acid]	–	–	–	–	potent competitive inhibitor	IC50 (PTP-1B): 19 µM
O=P(O)(O)OC(CO)CO [β-glycerophosphate]	–	–	–	–	did not show any observable level of inhibition	–
histidine phosphatase domain of human Sts-1 (Sts-1HP) (from UniProt Q8TF42 369-636) (domain or fragment)	–	–	–	–	–	stoichiometry N [3]: 2
Nc1ccc(S(=O)(=O)O)cc1 [Sulfanilic acid]	–	–	–	–	modest inhibitor	–
CN(N=O)c1ccc(O)c(O)c1 [Methyl-dephostatin, methyl-3,4-dephostatin]	–	–	–	–	not affected	IC50 (PTP-1B): 3.5 µM
Cc1cc(=O)oc2c(F)c(OP(=O)(O)O)c(F)cc12 [DifMUP, 6,8-Difluoro-4-Methylumbelliferyl Phosphate]	850 ± 230 µM	4.92 ± 0.76 s⁻¹	2 µM	100.68 s⁻¹	–	–
O=[N+]([O-])c1ccc(OP(=O)(O)O)cc1 [pNPP, para-nitrophenyl phosphate]	5610 ± 1690 µM	1.23 ± 0.15 s⁻¹	2640 ± 480 µM	13.62 ± 0.63 s⁻¹	–	Km (Full-length Sts-1): 3310 ± 270 µM; kcat (Full-length Sts-1): 158.6 ± 6.48 s⁻¹
